One assay concerns CR^+ B cells. Briefly: induction in vitro of CR+ B cell differentiation from CR- B cell precursors. The assay is classed as cell-based, nu/nu mice. Conditions: concentrations of 0.01 ng to 10 μg/ml. On the procedure:
To determine the activity and characteristics of the polypeptide, determinations were carried out on healthy 5-6 weeks nu/nu mice of both sexes, the mice being bred on a BALB/c background (thymocytes expressing Thy-1.2 surface antigen) and maintained under conventional conditions. For the antisera, anti Thy-1.2 sera were prepared in Thy-1 congenic mice.
For the induction in vitro of Thy-1^+ T cells or CR^+ B cell differentiation, the induction of thymocyte differentiation from prothymocytes in vitro was performed as described by Komuro and Boyse, (Lancet, 1, 740, 1973), using the acquisition of Thy-1.2 as a marker of T cell differentiation. The induction of CR^+ B cell differentiation from CR^- B cell precursors in vitro was performed under similar conditions using as the assay criterion, the capacity of CR^+ cells to bind sheep erythrocytes coated with subagglutinating quantities of rabbit antibody and nonlytic complement. Spleen cell populations from healthy nu/nu mice fractionated on discontinuous bovine serum albumin gradients were used as the source of both precursor types (Thy-1^- and CR^-) because they have few or no Thy-1^+ cells and low numbers of CR^+ cells.

Assay [1] deals with neuromuscular transmission. Briefly: neuromuscular transmission assessed by electromyography after injection. The settings on record: mice, single injection of 10-100 μg peptide in saline intraperitoneally, 24 hours later. In kind it is in vivo. On the procedure: To determine the effect of this peptide on neuromuscular transmission, mice were injected with 10-100 μg peptide in N saline intraperitoreally. Twenty-four hours later, neuromuscular transmission was assessed by electromyography as described in Lancet, Vol. 12, pps. 256-259, 1975.

Assay [2] can be described thus: activity compared with the basic pentapeptide of Example I, in Twomey solution. Conditions: 1 μg/ml in 89% Twomey solution.

Each structure is given as a SMILES string. Where a SMILES comes first, the peptide text is derived from it.

Regarding `CC(C)[C@H](NC(=O)[C@H](CC(=O)O)NC(=O)[C@H](CCCCN)NC(=O)[C@@H](N)CCCNC(=N)N)C(=O)N[C@@H](Cc1ccc(O)cc1)C(=O)O` [Example I, H2 N-ARG-LYS-ASP-VAL-TYR-COOH] (H-RKDVY-OH), the “induction of differentiation of CR+ B cells” value in the assay with CR^+ B cells was “did not induce”. In addition, in assay [1], the “neuromuscular transmission impairment by electromyography” value was “detectable neuromuscular impairment”.

Take `CC(C)[C@H](NC(=O)[C@H](CC(=O)O)NC(=O)[C@H](CCCCN)NC(=O)[C@@H](N)CCCNC(=N)N)C(=O)N[C@@H](Cc1ccc(O)cc1)C(N)=O` [Example IV, H2 N-ARG-LYS-ASP-VAL-TYR-CONH2] (H-RKDVY-NH2): in assay [2], the “maximum activity compared with the basic pentapeptide of Example I” value is reported as 105% and the “minimum activity compared with the basic pentapeptide of Example I” value came out at 70%.

The record behind these values is patent publication US4190646A, “Polypeptide compositions and methods” (Sloan-Kettering Institute for Cancer Research, priority 1979, dated 1980).
